Some test systems named below: OVCAR-4; MCF7; HCT-116; SF-539; NCI-H522; MDA-N; SK-MEL-2; CCRF-CEM; SF-268; K562; MDA-MB-231; SN12C; OVCAR-5; IGROV-1; NCI/ADR-RES; NCI-H23; HCC 2998; ACHN; UACC-62; RXF 393.
Common to all, as to assay: NCI-60 cell line screen, 48 h

Each structure is given as a SMILES string.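 Method: 48-hour compound exposure of cells in 96-well plates, five concentrations, linear interpolation of endpoints. GI50 = concentration required for 50% inhibition of growth.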 Calls of active or inactive are those of the source. Rule as the data show it: active = GI50 up to about 1.1 µM and inactive = higher.

Regarding `CCC1(C)C=Cc2c(cc(O)c3c(=O)c4ccccc4n(C)c23)O1` (stereo not given), the GI50 in the assay with OVCAR-4, in the assay on MCF7, with HCT-116, in the assay with SF-539, in the assay on NCI-H522 and in the assay on MDA-N was > 10 µM (inactive) in each case. For the same compound, the GI50 in the assay on SK-MEL-2, in the assay with CCRF-CEM, in the assay on SF-268, with K562, in the assay on MDA-MB-231 and with SN12C was > 10 µM (inactive) each time. Besides, the GI50 in the assay with OVCAR-5 is > 10 µM (inactive); in the assay on IGROV-1 it was > 10000 nM (inactive); in the assay with NCI/ADR-RES, > 10 µM (inactive); with NCI-H23 it was > 10 µM (inactive); in the assay on HCC 2998, > 10 µM (inactive); in the assay on ACHN, > 10 µM (inactive). Besides, the GI50 in the assay on UACC-62 and with RXF 393 was > 10 µM (inactive) in each case.
Regarding `O=C1CC(c2ccccc2Cl)C2(C(=O)NC(=O)NC2=O)C(c2ccccc2Cl)C1` (stereo not given), the GI50 is > 100 µM (inactive) in the assay on OVCAR-4; 54.1 µM (inactive) in the assay on MCF7; > 100 µM (inactive) in the assay with HCT-116; 76.2 µM (inactive) in the assay with SF-539; > 100 µM (inactive) in the assay with NCI-H522; 78 µM (inactive) in the assay with MDA-N. In addition, the GI50 was 81.1 µM (inactive) with SK-MEL-2; > 100 µM (inactive) in the assay with CCRF-CEM; 39.4 µM (inactive) with SF-268; > 100 µM (inactive) in the assay with K562; > 100 µM (inactive) in the assay with MDA-MB-231; > 100 µM (inactive) in the assay with SN12C. Also, the GI50 in the assay on OVCAR-5 is > 100 µM (inactive); in the assay on IGROV-1, 104 nM (active); with NCI/ADR-RES it was > 100 µM (inactive); in the assay with NCI-H23 it was > 100 µM (inactive); with HCC 2998, 49.2 µM (inactive); with ACHN, > 100 µM (inactive). In addition, the figures for the GI50 with UACC-62 and in the assay on RXF 393 were 46.9 µM (inactive) and 29.5 µM (inactive), respectively.
As to `CN(C)c1ccc(/N=C2/C=CC(=C(C#N)C#N)c3ccccc32)cc1`, the GI50 is 0.906 µM (active) with OVCAR-4; 0.178 µM (active) with MCF7; 0.117 µM (active) in the assay on HCT-116; 0.208 µM (active) in the assay with SF-539; 0.0555 µM (active) in the assay with NCI-H522; 0.0365 µM (active) in the assay with MDA-N. Also, the GI50 in the assay on SK-MEL-2 was 0.337 µM (active); in the assay on CCRF-CEM, 0.094 µM (active); in the assay on SF-268, 0.38 µM (active); in the assay with K562, 0.0723 µM (active); in the assay with MDA-MB-231, 0.307 µM (active); in the assay on SN12C it was 0.332 µM (active). The GI50 with OVCAR-5 was 0.326 µM (active); in the assay on IGROV-1, 222 nM (active); in the assay on NCI/ADR-RES, 0.0975 µM (active); in the assay on NCI-H23, 0.259 µM (active); in the assay with HCC 2998, 0.244 µM (active); with ACHN, 0.485 µM (active). Further, the GI50 with UACC-62 is 0.386 µM (active); with RXF 393, 0.46 µM (active).

For the origin of these results see ChEMBL document CHEMBL1201862, “PubChem BioAssay data set” (2004).
